Reference: paper PMC2193054 (The Journal of Experimental Medicine, 1999)
“And” between values parts separate entries of the source, which are not always exact repeats. Equal values may be shown once. Read-outs that look alike come from different tables or passages of the source. Marks after values point to notes of the source that are not given here.

Assays:
M. tuberculosis = assay type: cell-based
[1] = test system: sheep brain glutamine synthetase; assay type: biochemical
[2] = molecular target: T1, E. coli glutamine synthetase (Escherichia coli, UniProt P0A9C5); assay type: biochemical, E. coli W
T1 sequence (P0A9C5 2-469 limits assumed): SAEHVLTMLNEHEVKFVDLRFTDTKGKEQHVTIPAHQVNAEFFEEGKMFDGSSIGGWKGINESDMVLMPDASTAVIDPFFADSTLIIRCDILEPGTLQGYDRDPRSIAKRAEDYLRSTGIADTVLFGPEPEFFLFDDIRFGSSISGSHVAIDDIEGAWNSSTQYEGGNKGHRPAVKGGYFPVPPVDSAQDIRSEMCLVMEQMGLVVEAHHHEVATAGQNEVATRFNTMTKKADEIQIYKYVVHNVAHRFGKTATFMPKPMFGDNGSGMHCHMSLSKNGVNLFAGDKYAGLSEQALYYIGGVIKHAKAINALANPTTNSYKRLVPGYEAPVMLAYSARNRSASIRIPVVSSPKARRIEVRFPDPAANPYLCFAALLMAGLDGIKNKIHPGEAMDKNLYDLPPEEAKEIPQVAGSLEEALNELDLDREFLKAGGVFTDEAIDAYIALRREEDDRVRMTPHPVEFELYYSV

[3] = molecular target: T2, M. tuberculosis glutamine synthetase (Mycobacterium tuberculosis, UniProt P9WN39); assay type: biochemical, M. tuberculosis Erdman
M. tuberculosis Erdman [4] = assay type: cell-based
[5] = molecular target: T2, M. tuberculosis glutamine synthetase; assay type: cell-based, M. tuberculosis Erdman
M. avium (25291; ATCC) = assay type: cell-based
[6] = test system: γ-glutamylcysteine synthetase; details: in contrast to glutamine synthetase; cited from earlier work
E. coli DH5α = assay type: cell-based; details: 6 h
M. tuberculosis H37Rv = assay type: cell-based
M. phlei = assay type: cell-based; details: 3 d
[7] = test system: recombinant M. tuberculosis glutamine synthetase; assay type: cell-based, M. tuberculosis (expressed in M. smegmatis); details: 200 μM
[8] = molecular target: T2, M. tuberculosis glutamine synthetase; assay type: cell-based, M. tuberculosis (expressed in M. smegmatis); details: 200 μM
M. bovis BCG = assay type: cell-based
M. avium = assay type: cell-based
M. tuberculosis Erdman [9] = assay type: cell-based; remark: listed apart in the source
[10] = test system: L. pneumophila Philadelphia 1; assay type: cell-based; details: 24 h
M. bovis = assay type: cell-based
[11] = test system: M. tuberculosis superoxide dismutase; assay type: cell-based; details: 20 μM
M. smegmatis = assay type: cell-based

T2 sequence (P9WN39 2-478): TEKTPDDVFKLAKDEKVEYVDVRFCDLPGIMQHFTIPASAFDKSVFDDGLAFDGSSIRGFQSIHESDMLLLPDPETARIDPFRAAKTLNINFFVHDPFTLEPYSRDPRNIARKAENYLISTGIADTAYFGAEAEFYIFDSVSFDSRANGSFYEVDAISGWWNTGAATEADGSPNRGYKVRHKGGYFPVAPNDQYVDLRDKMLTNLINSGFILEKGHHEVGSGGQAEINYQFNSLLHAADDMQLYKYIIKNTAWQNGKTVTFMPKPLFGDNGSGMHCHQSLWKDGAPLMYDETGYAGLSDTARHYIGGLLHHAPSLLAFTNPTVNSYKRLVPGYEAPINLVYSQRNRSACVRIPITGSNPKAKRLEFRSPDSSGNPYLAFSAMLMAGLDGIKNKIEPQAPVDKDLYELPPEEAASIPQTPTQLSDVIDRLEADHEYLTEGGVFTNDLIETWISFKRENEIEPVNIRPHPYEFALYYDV

SMILES: NCC[C@H](O)C(=O)N[C@@H]1C[C@H](N)[C@@H](O[C@H]2O[C@H](CN)[C@@H](O)[C@H](O)[C@H]2O)[C@H](O)[C@H]1O[C@H]1O[C@H](CO)[C@@H](O)[C@H](N)[C@H]1O [Amikacin, amikacin]
- influence on the content of either poly-L-glutamate/glutamine or D,L-alanine (M. tuberculosis): little influence
- D,L-Alanine (M. tuberculosis; 0.06 μg/ml): 29.1 μg/10^10 Cells
- Poly-L-Glutamate/glutamine (M. tuberculosis; 0.06 μg/ml): 49.9 μg/10^10 Cells
- D,L-Alanine (M. tuberculosis; 0.25 μg/ml): 26.3 μg/10^10 Cells
- Poly-L-Glutamate/glutamine (M. tuberculosis; 0.25 μg/ml): 43.2 μg/10^10 Cells
- D,L-Alanine (M. tuberculosis; 1 μg/ml): 12.0^a μg/10^10 Cells
- Poly-L-Glutamate/glutamine (M. tuberculosis; 1 μg/ml): 26.0^a μg/10^10 Cells

SMILES: CP(=O)(O)CCC(N)C(=O)O (racemic) [D,L-phosphinothricin]
- inactivation at the highest dose of inhibitor [1]: not completely inactivated
- remaining enzyme activity (% of initial activity) [1]: ~25%
- remaining enzyme activity (% of initial activity) ([1]; 2 μM): 60%
- Ki ([1]; read-out: Ki D,L-Ppt): 16.4 µM
- remaining enzyme activity (% of initial activity) ([2]; 2 µM): < 10% and 3–10%
- remaining enzyme activity (% of initial activity) ([2]; 20 μM): ≤ 0.5%
- remaining enzyme activity (% of initial activity) ([2]; 200 μM): ≤ 0.5%
- remaining enzyme activity (% of initial activity) ([3]; 2 µM): < 10% and 3–10%
- remaining enzyme activity (% of initial activity) ([3]; 20 μM): ≤ 0.5%
- remaining enzyme activity (% of initial activity) ([3]; 200 μM): ≤ 0.5%
- cell density lag behind uninhibited cultures (M. tuberculosis Erdman [4]; 20, 200, 2,000 μM): 0.5–1.5 log units

SMILES: CO[C@H]1/C=C/O[C@@]2(C)Oc3c(C)c(O)c4c(O)c(c(/C=N/N5CCN(C)CC5)c(O)c4c3C2=O)NC(=O)/C(C)=C\C=C\[C@H](C)[C@H](O)[C@@H](C)[C@@H](O)[C@@H](C)[C@H](OC(C)=O)[C@@H]1C [Rifampin, rifampin]
- effect on intracellular or extracellular glutamine synthetase activity [5]: negligible effect
- influence on the content of either poly-L-glutamate/glutamine or D,L-alanine (M. tuberculosis): little influence
- D,L-Alanine (M. tuberculosis; 0.0125 μg/ml): 23.6 μg/10^10 Cells
- Poly-L-Glutamate/glutamine (M. tuberculosis; 0.0125 μg/ml): 54.2 μg/10^10 Cells
- D,L-Alanine (M. tuberculosis; 0.05 μg/ml): 25.1 μg/10^10 Cells
- Poly-L-Glutamate/glutamine (M. tuberculosis; 0.05 μg/ml): 41.6 μg/10^10 Cells
- D,L-Alanine (M. tuberculosis; 0.2 μg/ml): 20.0^a μg/10^10 Cells
- Poly-L-Glutamate/glutamine (M. tuberculosis; 0.2 μg/ml): 40.0^a μg/10^10 Cells

SMILES: CC[C@@H](CO)NCCN[C@@H](CC)CO [ethambutol]
- effect on intracellular or extracellular glutamine synthetase activity [5]: negligible effect

SMILES: NNC(=O)c1ccncc1 [isoniazid]
- effect on intracellular or extracellular glutamine synthetase activity [5]: negligible effect

SMILES: NC(=O)c1cnccn1 [pyrazinamide]
- effect on intracellular or extracellular glutamine synthetase activity [5]: negligible effect

SMILES: CS(=N)(=O)CC[C@H](N)C(=O)O (stereo partly drawn) [L-methionine-S-sulfoximine]
- effect on morphology, doubling time, or viability (THP-1 human monocytes): no effect
- growth of intracellular bacteria (M. avium (25291; ATCC); 2 μM): uninhibited
- growth of intracellular bacteria (M. avium (25291; ATCC); 200 μM): strongly inhibited
- nature of the inhibition of γ-glutamylcysteine synthetase [6]: reversible
- sensitivity of growth to the inhibitor (E. coli DH5α): insensitive
- sensitivity of growth to the inhibitor (M. tuberculosis H37Rv): highly sensitive
- inactivation at the highest dose of inhibitor [1]: not completely inactivated
- remaining enzyme activity (% of initial activity) ([1]; 2 μM): ~40%
- Ki ([1]; read-out: Ki L-Ms): 110 µM
- effect on the quantity of glutamine synthetase protein exported [5]: no detectable effect
- cell-associated glutamine synthetase activity (plateau) ([5]; 20 μM): ~50 mU
- decrease of cell-associated glutamine synthetase activity from the uninhibited level ([5]; 20 μM): 14%
- extracellular glutamine synthetase activity ([5]; 20 μM): ~4.5 mU
- reduction of extracellular glutamine synthetase activity from the uninhibited level ([5]; 20 μM): 80%
- sensitivity of growth to the inhibitor (M. phlei): insensitive
- decrease of cell-associated glutamine synthetase activity (sum of endogenous and recombinant enzymes) [7]: 17%
- decrease of extracellular glutamine synthetase activity of the recombinant strain [8]: 89%
- sensitivity of growth to the inhibitor (M. bovis BCG): highly sensitive
- sensitivity of growth to the inhibitor (M. avium): intermediate
- growth of intracellular bacteria (M. tuberculosis Erdman [9]; 2 μM): slowed
- growth of intracellular bacteria (M. tuberculosis Erdman [9]; 200 μM): strongly inhibited
- remaining enzyme activity (% of initial activity) ([2]; 2 µM): < 10% and 3–10%
- remaining enzyme activity (% of initial activity) ([2]; 20 μM): < 10%
- remaining enzyme activity (% of initial activity) ([2]; 200 μM): ≤ 0.5%
- sensitivity of growth to the inhibitor [10]: insensitive
- D,L-Alanine (M. tuberculosis; 0.2 μM): 21.2 μg/10^10 Cells
- Poly-L-Glutamate/glutamine (M. tuberculosis; 0.2 μM): 18.2 μg/10^10 Cells
- D,L-Alanine (M. tuberculosis; 2 μM): 17.7 μg/10^10 Cells
- Poly-L-Glutamate/glutamine (M. tuberculosis; 2 μM): 9.8 μg/10^10 Cells
- D,L-Alanine (M. tuberculosis; 20 μM): 17.8 μg/10^10 Cells
- Poly-L-Glutamate/glutamine (M. tuberculosis; 20 μM): 6.1 μg/10^10 Cells
- sensitivity of growth to the inhibitor (M. bovis): highly sensitive
- activity or quantity of extracellular superoxide dismutase compared with untreated cultures [11]: no reduction
- remaining enzyme activity (% of initial activity) ([3]; 2 µM): < 10% and 3–10%
- remaining enzyme activity (% of initial activity) ([3]; 20 μM): < 10%
- remaining enzyme activity (% of initial activity) ([3]; 200 μM): ≤ 0.5%
- effect on cell growth (M. tuberculosis Erdman [4]): blocked cell growth almost immediately
- growth (M. tuberculosis Erdman [4]): completely inhibited
- growth lag behind uninhibited cultures with L-glutamine added (M. tuberculosis Erdman [4]): 0.4–1.3 log units
- reversal of growth inhibition by L-glutamine (M. tuberculosis Erdman [4]): almost complete
- growth lag behind untreated control cultures (M. tuberculosis Erdman [4]; 0.2 μM): 0.1–0.2 log units
- growth plateau below that of control cultures (M. tuberculosis Erdman [4]; 2 μM): ~2 log units
- sensitivity of growth to the inhibitor (M. tuberculosis Erdman [4]; 0.2-200 μM): highly sensitive
- growth rate of parent and recombinant M. smegmatis strain (M. smegmatis; 200 μM): unaffected
- sensitivity of growth to the inhibitor (M. smegmatis; 3 d): insensitive
